target: TNFα trimer (Homo sapiens, UniProt P01375); experiment: TNFα FP Competitive Binding Assay; conditions: FP binding assay; 20 nM TNFα trimer, 1 nM OregonGreen488 probe; read-out: TNF IC50
In short: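 Compounds in 12-point 1:3 series, final top 100 μM (2.0% DMSO) or 338 μM (3.4% DMSO), displace 1 nM fluorescent probe from 20 nM TNFα trimer. After 18-24 h incubation plus 1 h rt equilibration, background-subtracted polarization measured and curves fitted with variable slope.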

Sequence of TNFα trimer (P01375 77-233 limits assumed): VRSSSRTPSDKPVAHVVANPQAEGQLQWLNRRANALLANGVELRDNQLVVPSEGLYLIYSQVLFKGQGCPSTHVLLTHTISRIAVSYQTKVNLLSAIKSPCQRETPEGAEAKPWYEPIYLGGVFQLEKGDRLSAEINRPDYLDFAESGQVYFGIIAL

First: COCc1ccc(OC(F)F)c(Cn2c3cc(-c4cnc(N5CCN(C(C)=O)CC5)nc4)ccc3c(=O)n2C)c1 [Example 90, 6-(2-(4-Acetylpiperazin-1-yl)pyrimidin-5-yl)-1-(2-(difluoromethoxy)-5-(methoxymethyl)benzyl)-2-methyl-1H-indazol-3(2H)-one]
Second: CC(=O)N1CCN(c2ncc(-c3ccc4c(=O)n(C)n(Cc5cc(CO)ccc5C(F)(F)F)c4c3)cn2)CC1 [Example 115, 6-(2-(4-Acetylpiperazin-1-yl)pyrimidin-5-yl)-1-(5-(hydroxymethyl)-2-(trifluoromethyl)benzyl)-2-methyl-1H-indazol-3(2H)-one]
The IC50 of the first is higher: 1 to 10 µM for the first, under 1 µM for the second.

First: Cn1c(=O)c2ccc(-c3cnc(C4(O)CN(C(=O)CO)C4)nc3)cc2n1Cc1ccccc1OC(F)F [Example 91, 1-(2-(Difluoromethoxy)benzyl)-6-(2-(3-hydroxy-1-(2-hydroxyacetyl)azetidin-3-yl)pyrimidin-5-yl)-2-methyl-1H-indazol-3(2H)-one]
Second: C[C@@H]1CN(C(=O)CO)CCN1c1ncc(-c2ccc3c(=O)n(C)n(Cc4ccccc4OC(F)F)c3c2F)cn1 [Example 121, (R)-1-(2-(Difluoromethoxy)benzyl)-7-fluoro-6-(2-(4-(2-hydroxyacetyl)-2-methylpiperazin-1-yl)pyrimidin-5-yl)-2-methyl-1H-indazol-3(2H)-one]
The IC50 of the first is higher: 1 to 10 µM for the first, under 1 µM for the second. The second is the more potent here.

First: Cn1c(=O)c2ccc(-c3cnc(C(C)(C)O)nc3)cc2n1Cc1cc(Cn2cn[nH]c2=O)ccc1OC(F)F [Example 92, 1-(2-(Difluoromethoxy)-((5-oxo-1H-1,2,4-triazol-4(5H)-yl)methy)benzyl)-6-(2-(2-hydroxypropan-2-yl)pyrimidin-5-yl)-2-methyl-1H-indazol-3(2H)-one]
Second: Cn1c(=O)c2ccc(-c3cnc(C(C)(C)O)nc3)cc2n1Cc1cc(Cn2cncn2)ccc1OC(F)F [Example 104]
The IC50 of the first is higher: 1 to 10 µM for the first, under 1 µM for the second. The second is the more potent here.

Cn1c(=O)c2ccc(-c3cnc(N4CCN5C(=O)NC[C@H]5C4)nc3)cc2n1Cc1cc(Cn2cnnc2)ccc1OC(F)F [Example 93, (S)-7-(5-(1-(5-((4H-1,2,4-triazol-4-yl)methyl)-2-(difluoromethoxy)benzyl)-2-methyl-3-oxo-2,3-dihydro-1H-indazol-6-yl)pyrimidin-2-yl)hexahydroimidazo[1,5-a]pyrazin-3(2H)-one] and Cn1c(=O)c2ccc(-c3cnc(N4CCN5C(=O)NC[C@@H]5C4)nc3)cc2n1Cc1cc(Cn2cncn2)ccc1OC(F)F [Example 113, (R)-7-(5-(1-(5-((1H-1,2,4-Triazol-1-yl)methyl)-2-(difluoromethoxy)benzyl)-2-methyl-3-oxo-2,3-dihydro-1H-indazol-6-yl)pyrimidin-2-yl)hexahydroimidazo[1,5-a]pyrazin-3(2H)-one] cannot be ordered by IC50: under 1 µM for the first, under 1 µM for the second.

CCN(Cc1ccc(OC(F)F)c(Cn2c3cc(-c4cnc(N5CCN(C(C)=O)[C@H](C)C5)nc4)ccc3c(=O)n2C)c1)C(C)=O [Example 94, (R)—N-(3-((6-(2-(4-Acetyl-3-methylpiperazin-1-yl)pyrimidin-5-yl)-2-methyl-3-oxo-2,3-dihydro-1H-indazol-1-yl)methyl)-4-(difluoromethoxy)benzyl)-N-ethylacetamide] and CC(=O)N1CCN(c2ncc(-c3ccc4c(=O)n(C)n(Cc5cc(CC(C)O)ccc5OC(F)F)c4c3)cn2)C[C@H]1C (stereo partly drawn) [Example 114, 6-(2-((R)-4-Acetyl-3-methylpiperazin-1-yl)pyrimidin-5-yl)-1-(2-(difluoromethoxy)-5-(2-hydroxypropyl)benzyl)-2-methyl-1H-indazol-3(2H)-one] fall in the same range of IC50: 1 to 10 µM for the first, 1 to 10 µM for the second.

Compared with Cc1ccc(OC(F)F)c(Cn2c3nc(-c4cnc(C(C)(C)O)nc4C)ccc3c(=O)n2C)c1 [Example 95, 1-(2-(Difluoromethoxy)-5-methylbenzyl)-6-(2-(2-hydroxypropan-2-yl)-4-methylpyrimidin-5-yl)-2-methyl-1,2-dihydro-3H-pyrazolo[3,4-b]pyridin-3-one], Cc1ccc(Cl)c(Cn2c3nc(-c4cnc(C(C)(C)O)nc4C)ccc3c(=O)n2C)c1 [Example 99, 1-(2-Chloro-5-methylbenzyl)-6-(2-(2-hydroxypropan-2-yl)-4-methylpyrimidin-5-yl)-2-methyl-1,2-dihydro-3H-pyrazolo[3,4-b]pyridin-3-one] is lower in IC50: 1 to 10 µM for the first, under 1 µM for the second.

First: Cc1ccc(OC(F)F)c(Cn2c3nc(-c4cnc(C(C)(C)O)nc4C)c(F)cc3c(=O)n2C)c1 [Example 98, 1-(2-(Difluoromethoxy)-5-methylbenzyl)-5-fluoro-6-(2-(2-hydroxypropan-2-yl)-4-methylpyrimidin-5-yl)-2-methyl-1,2-dihydro-3H-pyrazolo[3,4-b]pyridin-3-one]
Second: Cn1c(=O)c2cc(F)c(-c3cnc(C(C)(C)O)nc3)cc2n1Cc1cc(CC#N)ccc1OC(F)F [Example 100, 2-(4-(Difluoromethoxy)-3-((5-fluoro-6-(2-(2-hydroxypropan-2-yl)pyrimidin-5-yl)-2-methyl-3-oxo-2,3-dihydro-1H-indazol-1-yl)methyl)phenyl)acetonitrile]
The IC50 of the first is lower: under 1 µM for the first, 1 to 10 µM for the second. The first is the more potent here.

First: CC(=O)N1CCN(c2ncc(-c3ccc4c(=O)n(C)n(Cc5cc(Cn6ccc(=O)[nH]6)ccc5OC(F)F)c4c3)cn2)C[C@H]1C [Example 101, (R)-6-(2-(4-Acetyl-3-methylpiperazin-1-yl)pyrimidin-5-yl)-1-(2-(difluoromethoxy)-5-((3-oxo-2,3-dihydro-H-pyrazol-1-yl)methyl)benzyl)-2-methyl-1,2-dihydro-3H-indazol-3-one]
Second: CC(=O)N1CCN(c2ncc(-c3ccc4c(=O)n(C)n(Cc5cc(Cc6cn[nH]c6)ccc5OC(F)F)c4c3)cn2)C[C@H]1C [Example 110, (R)-1-(5-((1H-Pyrazol-4-yl)methyl)-2-(difluoromethoxy)benzyl)-6-(2-(4-acetyl-3-methylpiperazin-1-yl)pyrimidin-5-yl)-2-methyl-1H-indazol-3(2H)-one]
The IC50 of the first is higher: 1 to 10 µM for the first, under 1 µM for the second. The second is the more potent here.

CC(=O)N1CCN(c2ncc(-c3ccc4c(=O)n(C)n(Cc5cc(COc6ccn[nH]6)ccc5OC(F)F)c4c3)cn2)C[C@H]1C [Example 102] and CC(=O)N1CCN(c2ncc(-c3ccc4c(=O)n(C)n(Cc5nc(C)ccc5Cl)c4c3)cn2)C[C@H]1C [Example 105, (R)-6-(2-(4-Acetyl-3-methylpiperazin-1-yl)pyrimidin-5-yl)-1-((3-chloro-6-methylpyridin-2-yl)methyl)-2-methyl-1,2-dihydro-3H-indazol-3-one] cannot be ordered by IC50: under 1 µM for the first, under 1 µM for the second.

Cc1ccc(Cl)c(Cn2c3cc(-c4cnc(N5CCN6C(=O)NC[C@H]6C5)nc4)ccc3c(=O)n2C)c1 [Example 103, (S)-7-(5-(1(2-Chloro-5-methylbenzyl)-2-methyl-3-oxo-2,3-dihydro-1H-indazol-6-yl)pyrimidin-2-yl)hexahydroimidazo[1,5-a]pyrazin-3(2H)-one] and Cn1cc(Cn2c3cc(-c4cnc(N5CCN6C(=O)NC[C@H]6C5)nc4)ccc3c(=O)n2C)c(C(F)(F)F)c1 [Example 123, (S)-7-(5-(2-Methyl-1-((1-methyl-4-(trifluoromethyl)-1H-pyrrol-3-yl)methyl)-3-oxo-2,3-dihydro-1H-indazol-6-yl)pyrimidin-2-yl)hexahydroimidazo[1,5-a]pyrazin-3(2H)-one] cannot be ordered by IC50: under 1 µM for the first, under 1 µM for the second.

CN1CCC(Nc2ccc(Cl)c(Cn3c4cc(-c5cnc(C(C)(C)O)nc5)ccc4c(=O)n3C)c2)C1=O (centres unmarked) [Example 109, 1-(2-Chloro-5-((1-methyl-2-oxopyrrolidin-3-yl)amino)benzyl)-6-(2-(2-hydroxypropan-2-yl)pyrimidin-5-yl)-2-methyl-1H-indazol-3(2H)-one] and Cn1c(=O)c2ccc(-c3cnc(C(C)(C)O)nc3)cc2n1Cc1cc(NCC(C)(C)O)ccc1Cl [Example 122, 1-(2-Chloro-5-((2-hydroxy-2-methylpropyl)amino)benzyl)-6-(2-(2-hydroxypropan-2-yl)pyrimidin-5-yl)-2-methyl-1H-indazol-3(2H)-one] fall in the same range of IC50: 1 to 10 µM for the first, 1 to 10 µM for the second.

Cn1c(=O)c2ccc(-c3cnc(C(C)(C)O)nc3)cc2n1Cc1cc(Cc2cn[nH]c2)ccc1OC(F)F [Example 111, 1-(5-((1H-Pyrazol-4-yl)methyl)-2-(difluoromethoxy)benzyl)-6-(2-(2-hydroxypropan-2-yl)pyrimidin-5-yl)-2-methyl-1H-indazol-3(2H)-one] and Cc1ccc(OC(F)F)c(Cn2c3cc(-c4cnc(C(C)(C)N)nc4)ccc3c(=O)n2C)c1 [Example 120, 6-(2-(2-Aminopropan-2-yl)pyrimidin-5-yl)-1-(2-(difluoromethoxy)-5-methylbenzyl)-2-methyl-1H-indazol-3(2H)-one] cannot be ordered by IC50: under 1 µM for the first, under 1 µM for the second.

Cc1cccc(C(C)n2c3cc(-c4cnc(N5CCN(C(=O)CO)[C@H](C)C5)nc4)ccc3c(=O)n2C)c1 (stereo partly drawn) [Example 116, 6-(2-((R)-4-(2-hydroxyacetyl)-3-methylpiperazin-1-yl)pyrimidin-5-yl)-2-methyl-1-(1-(m-tolyl)ethyl)-1H-indazol-3(2H)-one] and CC(=O)N1CCN(c2ncc(-c3ccc4c(=O)n(C)n(Cc5cn(C(C)=O)cc5C(F)(F)F)c4c3)cn2)C[C@H]1C [Example 119, (R)-6-(2-(4-Acetyl-3-methylpiperazin-1-yl)pyrimidin-5-yl)-1-((1-acetyl-4-(trifluoromethyl)-1H-pyrrol-3-yl)methyl)-2-methyl-1H-indazol-3(2H)-one] cannot be ordered by IC50: under 1 µM for the first, under 1 µM for the second.

Compared with Cc1ccc(OC(F)F)c(Cn2c3cc(-c4cnc(C(C)C)nc4)ccc3c(=O)n2C)c1 [Example 124, 1-(2-(Difluoromethoxy)-5-methylbenzyl)-6-(2-isopropylpyrimidin-5-yl)-2-methyl-1H-indazol-3(2H)-one], Cn1c(=O)c2ccc(-c3cnc(C(C)(C)O)nc3)cc2n1Cc1cc(N2CCOCC2)ccc1OC(F)F [Example 125, 1-(2-(Difluoromethoxy)-5-morpholinobenzyl)-6-(2-(2-hydroxypropan-2-yl)pyrimidin-5-yl)-2-methyl-1H-indazol-3(2H)-one] is higher in IC50: under 1 µM for the first, 1 to 10 µM for the second. The first is the more potent here.

C[C@@H]1CN(C(=O)CO)CCN1c1ncc(-c2cc3c(cc2F)c(=O)n(C)n3Cc2ccccc2OC(F)F)cn1 [Example 126, (R)-1-(2-(Difluoromethoxy)benzyl)-5-fluoro-6-(2-(4-(2-hydroxyacetyl)-2-methylpiperazin-1-yl)pyrimidin-5-yl)-2-methyl-1H-indazol-3(2H)-one] showed an IC50 of under 1 µM.
